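Assay format: 96-well plates, 48-hour exposure. The concentration for full growth arrest is given as TGI.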
Experiments:
Test in all cases: NCI-60 cell line screen, 48 h
SNB-75 CNS = system: SNB-75 CNS
SF-295 CNS = system: SF-295 CNS
LXFL 529 NSCLC = system: LXFL 529 NSCLC
SK-OV-3 ovarian = system: SK-OV-3 ovarian
MALME-3M melanoma = system: MALME-3M melanoma
ACHN renal = system: ACHN renal
RPMI-8226 leukemia = system: RPMI-8226 leukemia
CCRF-CEM leukemia = system: CCRF-CEM leukemia
SNB-78 CNS = system: SNB-78 CNS
SW-620 colon = system: SW-620 colon
KM12 colon = system: KM12 colon
OVCAR-4 ovarian = system: OVCAR-4 ovarian
MOLT-4 leukemia = system: MOLT-4 leukemia
DMS 114 small cell lung = system: DMS 114 small cell lung
A549 NSCLC = system: A549 NSCLC
M14 melanoma = system: M14 melanoma
HCC-2998 colon = system: HCC-2998 colon
DMS 273 small cell lung = system: DMS 273 small cell lung
SK-MEL-5 melanoma = system: SK-MEL-5 melanoma
SF-268 CNS = system: SF-268 CNS
HOP-18 NSCLC = system: HOP-18 NSCLC
K-562 leukemia = system: K-562 leukemia
EKVX NSCLC = system: EKVX NSCLC
COLO 205 colon = system: COLO 205 colon
U251 CNS = system: U251 CNS
TK-10 renal = system: TK-10 renal
SK-MEL-2 melanoma = system: SK-MEL-2 melanoma
HCT-116 colon = system: HCT-116 colon
UO-31 renal = system: UO-31 renal
UACC-257 melanoma = system: UACC-257 melanoma
DLD-1 colon = system: DLD-1 colon
LOX IMVI melanoma = system: LOX IMVI melanoma
HOP-62 NSCLC = system: HOP-62 NSCLC
OVCAR-8 ovarian = system: OVCAR-8 ovarian
A498 renal = system: A498 renal
HL-60(TB) leukemia = system: HL-60(TB) leukemia
OVCAR-5 ovarian = system: OVCAR-5 ovarian
M19-MEL melanoma = system: M19-MEL melanoma
HOP-92 NSCLC = system: HOP-92 NSCLC
KM20L2 colon = system: KM20L2 colon
UACC-62 melanoma = system: UACC-62 melanoma
IGROV1 ovarian = system: IGROV1 ovarian
NCI-H226 lung = system: NCI-H226 lung
SNB-19 CNS = system: SNB-19 CNS
SK-MEL-28 melanoma = system: SK-MEL-28 melanoma
HT29 colon = system: HT29 colon
OVCAR-3 ovarian = system: OVCAR-3 ovarian
NCI-H460 lung = system: NCI-H460 lung
SF-539 CNS = system: SF-539 CNS
CAKI-1 renal = system: CAKI-1 renal
HCT-15 colon = system: HCT-15 colon
NCI-H522 lung = system: NCI-H522 lung
NCI-H23 lung = system: NCI-H23 lung
SN12C renal = system: SN12C renal
786-0 renal = system: 786-0 renal
XF 498 CNS = system: XF 498 CNS
RXF 393 renal = system: RXF 393 renal

## NCC(NC(=O)OCc1ccccc1)C(=O)O (stereo not drawn)
SNB-75 CNS
  TGI: > 50 µM
SF-295 CNS
  TGI: > 50 µM
LXFL 529 NSCLC
  TGI: > 50 µM
SK-OV-3 ovarian
  TGI: > 50 µM
MALME-3M melanoma
  TGI: > 50 µM
ACHN renal
  TGI: > 50 µM
RPMI-8226 leukemia
  TGI: > 50 µM
CCRF-CEM leukemia
  TGI: > 50 µM
SNB-78 CNS
  TGI: > 50 µM
SW-620 colon
  TGI: > 50 µM
KM12 colon
  TGI: > 50 µM
OVCAR-4 ovarian
  TGI: > 50 µM
MOLT-4 leukemia
  TGI: > 50 µM
DMS 114 small cell lung
  TGI: > 50 µM
A549 NSCLC
  TGI: > 50 µM
M14 melanoma
  TGI: > 50 µM
HCC-2998 colon
  TGI: > 50 µM
DMS 273 small cell lung
  TGI: > 50 µM
SK-MEL-5 melanoma
  TGI: > 50 µM
SF-268 CNS
  TGI: > 50 µM
HOP-18 NSCLC
  TGI: > 50 µM
K-562 leukemia
  TGI: > 50 µM
EKVX NSCLC
  TGI: > 50 µM
COLO 205 colon
  TGI: > 50 µM
U251 CNS
  TGI: > 50 µM
TK-10 renal
  TGI: > 50 µM
SK-MEL-2 melanoma
  TGI: > 50 µM
HCT-116 colon
  TGI: > 50 µM
UO-31 renal
  TGI: > 50 µM
UACC-257 melanoma
  TGI: > 50 µM
DLD-1 colon
  TGI: > 50 µM
LOX IMVI melanoma
  TGI: > 50 µM
HOP-62 NSCLC
  TGI: > 50 µM
OVCAR-8 ovarian
  TGI: > 50 µM
A498 renal
  TGI: > 50 µM
HL-60(TB) leukemia
  TGI: > 50 µM
OVCAR-5 ovarian
  TGI: > 50 µM
M19-MEL melanoma
  TGI: > 50 µM
HOP-92 NSCLC
  TGI: > 50 µM
KM20L2 colon
  TGI: > 50 µM
UACC-62 melanoma
  TGI: > 50 µM
IGROV1 ovarian
  TGI: > 50 µM
NCI-H226 lung
  TGI: > 50 µM
SNB-19 CNS
  TGI: > 50 µM
SK-MEL-28 melanoma
  TGI: > 50 µM
HT29 colon
  TGI: > 50 µM
OVCAR-3 ovarian
  TGI: > 50 µM
NCI-H460 lung
  TGI: > 50 µM
SF-539 CNS
  TGI: > 50 µM
CAKI-1 renal
  TGI: > 50 µM
HCT-15 colon
  TGI: > 50 µM
NCI-H522 lung
  TGI: > 50 µM
NCI-H23 lung
  TGI: > 50 µM
SN12C renal
  TGI: > 50 µM
786-0 renal
  TGI: > 50 µM

## C=C(CS(=O)(=O)c1ccccc1)[P+](c1ccccc1)(c1ccccc1)c1ccccc1
SNB-75 CNS
  TGI: 67.3 µM
SF-295 CNS
  TGI: 50 µM
SK-OV-3 ovarian
  TGI: 81.6 µM
MALME-3M melanoma
  TGI: 38.3 µM
ACHN renal
  TGI: 53.1 µM
RPMI-8226 leukemia
  TGI: 11.4 µM
CCRF-CEM leukemia
  TGI: 25 µM
SNB-78 CNS
  TGI: > 100 µM
SW-620 colon
  TGI: 51.1 µM
KM12 colon
  TGI: 29 µM
OVCAR-4 ovarian
  TGI: > 100 µM
MOLT-4 leukemia
  TGI: 39.6 µM
DMS 114 small cell lung
  TGI: 58.7 µM
A549 NSCLC
  TGI: > 100 µM
M14 melanoma
  TGI: 39.4 µM
HCC-2998 colon
  TGI: 47.2 µM
DMS 273 small cell lung
  TGI: 33.4 µM
SK-MEL-5 melanoma
  TGI: 29.1 µM
SF-268 CNS
  TGI: 29.6 µM
K-562 leukemia
  TGI: 31.7 µM
EKVX NSCLC
  TGI: > 100 µM
TK-10 renal
  TGI: 92.4 µM
SK-MEL-2 melanoma
  TGI: > 100 µM
XF 498 CNS
  TGI: 28.9 µM
HCT-116 colon
  TGI: 25.2 µM
UO-31 renal
  TGI: 94.3 µM
UACC-257 melanoma
  TGI: 22.2 µM
DLD-1 colon
  TGI: > 100 µM
LOX IMVI melanoma
  TGI: 30 µM
HOP-62 NSCLC
  TGI: 90 µM
OVCAR-8 ovarian
  TGI: 74.1 µM
A498 renal
  TGI: > 100 µM
HL-60(TB) leukemia
  TGI: 32.6 µM
OVCAR-5 ovarian
  TGI: > 100 µM
M19-MEL melanoma
  TGI: 50.4 µM
RXF 393 renal
  TGI: 38.4 µM
HOP-92 NSCLC
  TGI: 65.6 µM
KM20L2 colon
  TGI: 32.8 µM
UACC-62 melanoma
  TGI: 56.9 µM
IGROV1 ovarian
  TGI: 68.4 µM
NCI-H226 lung
  TGI: 36.7 µM
SNB-19 CNS
  TGI: > 100 µM
SK-MEL-28 melanoma
  TGI: 25.5 µM
HT29 colon
  TGI: 37.3 µM
OVCAR-3 ovarian
  TGI: 37.9 µM
NCI-H460 lung
  TGI: 66 µM
SF-539 CNS
  TGI: 78.2 µM
CAKI-1 renal
  TGI: 65.9 µM
HCT-15 colon
  TGI: > 100 µM
NCI-H522 lung
  TGI: 44.1 µM
NCI-H23 lung
  TGI: 62.7 µM
SN12C renal
  TGI: 32.4 µM
786-0 renal
  TGI: 47.3 µM
